Measured values reported in US6911324B2, “Induction of beta cell differentiation in human cells” (The Regents of the University of California, priority 2001, dated 2005).

Columns and labels:
Format in all cases: cell-based, human
[1] = test system: βlox5 cells expressing both NeuroD/BETA2 and PDX-1; assay: Insulin production (RT-PCR) in βlox5 cells expressing both NeuroD/BETA2 and PDX-1
Description: Cells were cultured in DMEM with 5.5 mM glucose and 10% FBS. Selection of clones was conducted in the same medium containing 300 ug/ml Hygromycin B. Qualitative RT-PCR was performed according to Itkin-Ansari et al., Mol. Endocrinol. 14:814-822 (2000).
In light of the previous finding that activation of GLP-1 receptor is one of the necessary inducing factors for β-cell differentiation, βlox5 cells expressing both NeuroD/BETA2 and PDX-1 were also tested for insulin production, before and after stimulation by exendin-4. The cells were treated with 10 nM exendin-4 in the culture medium for four days before the assay.
Cell aggregation was induced as described by Itkin-Ansari et al., supra, 2000. Quantitative insulin RT-PCR was performed by interpolation from a standard curve constructed using a plasmid containing the human insulin cDNA, as described by Beattie et al., Diabetes, 48:1013-1019, 1999.

[2] = test system: βlox5 cells; assay: RT-PCR analysis of pancreatic hormone gene expression in βlox5 cells
Description: FIG. 2: RT-PCR analysis of pancreatic hormone gene expression in βlox5. The conditions tested were βlox5 cells grown in monolayer culture, βlox5 cells infected with a retroviral vector expressing PDX-1, βlox5 cells grown as three-dimensional aggregates, and βlox5 cells treated with exendin-4. FIG. 2(A) insulin; FIG. 2(B) quantitative RT-PCR analysis of insulin gene expression; FIG. 2(C) other pancreatic hormones. Exendin-4 (Sigma) was used at a concentration of 10 nM. RT-PCR for insulin, somatostatin, glucagon, and IAPP have been described previously (Itkin-Ansari et al., submitted). Quantitative RT-PCR was done by interpolation from a standard curve constructed using a plasmid containing the human insulin cDNA.
PDX-1 also acted synergistically with cell-cell contact to further increase the level of somatostatin expression about 1,000-fold above the cells not expressing PDX-1, to a level similar to that found in normal human islets. To determine whether βlox5 could be induced to express pancreatic hormones, recombinant PDX-1 was expressed in βlox5 using a retroviral vector. […] Therefore, other factors were examined for their ability to induce hormone expression in βlox5 cells expressing PDX-1. Activin and betacellulin have been reported to be able to induce endocrine differentiation in cell lines and primary cells (Mashima et al., Diabetes 48:304-9 (1999), Huotari et al., Endocrinology 139, 1494-9 (1998), Mashima et al., J Clin Invest 97:1647-54 (1996), Yamaoka et al., J Clin Invest 102:294-301 (1998)). However, they had no effect on hormone expression in βlox5 cells (data not shown).
GLP-1, a small peptide cleaved from the proglucagon molecule, is an insulin secretogogue Drucker et al., Diabetes 47:159-69 (1998)).

[3] = test system: βlox5 cells; assay: Analysis of transcription factors (BETA2 RT-PCR, CREB western blot) in βlox5 cells
Description: FIG. 3: Analysis of transcription factors expressed in βlox5 cells. FIG. 3(A) electrophoretic mobility shift assay (EMSA) of PDX-1. EMSA for PDX-1 was performed using a probe derived from the human insulin promoter A5 element. FIGS. 3(B&C) RT-PCR analysis of BETA2 and Pax6. FIG. 3(D) Western blot analysis of CREB. FIG. 3(E) EMSA of RIPE3b.
The expression of transcription factors important in β-cell development was examined to determine whether they had been induced by PDX-1, cell-cell contact, and exendin-4. […] GLP-1 has been reported to increase cAMP levels and this has been thought to be a major mechanism by which GLP-1 acts as an insulin secretogogue (Serre et al., Endocrinology 139:4448-54 (1998)). […] RIPE3b, a factor that plays a critical role in insulin gene expression but that has not yet been cloned, is expressed in βlox5 irrespective of PDX-1, cell-cell contact, or exendin-4 (FIG. 3E).

[4] = test system: βlox5/PDX-1/MycER aggregates; assay: Transcription factor expression after c-Myc activation (RT-PCR, EMSA, western blot); settings: c-Myc activation by 4-OHTM
Description: For western blots, whole-cell extracts (10 μg of protein) from monolayer cultures and aggregates of TRM-6 and βlox5 cells as well as whole-cell extracts of the MycER expressing clones were used. Expression of c-Myc and MycER was determined by Western blot analysis with the human c-Myc-specific monoclonal antibody Myc-9E10 (Santa Cruz Biotechnology, Santa Cruz, Calif.) at a dilution of 1:250. The same membrane was re-probed with anti-actin rabbit antibody A2066 (Sigma, Saint Louis, Mo.) in order to verify the protein equivalence when comparing monolayers to aggregates. Western Blot for Phospho-CREB (Ser133) was performed using a polyclonal antibody (PhosphoPlusCREB (Ser133) Antibody Kit, Cell Signaling Technology, Beverly, Mass.) at a dilution of 1:500. Bound antibody was detected with horseradish peroxidase-linked anti-mouse or anti-rabbit Ig (Amersham Pharmacia Biotech, Buckinghamshire, England) and ECL (Amersham Pharmacia Biotech, Buckinghamshire, England).
βlox5 cells express Pax6 and RIPE3b in both the uninduced and induced states. BETA2/NeuroD is present only when the cells are induced. […] As shown by electrophoretic mobility shift assay analysis (EMSA), although not quantitative, we found binding of PDX-1, BETA2/NeuroD1 or RIPE3b to the insulin promoter in the samples from βlox5/PDX-1/MycER aggregates cultured with and without 4-OHTM. […]

[5] = test system: TRM-6/PDX-1 cells; assay: Somatostatin expression after c-Myc induction in TRM-6 aggregates; settings: four days of aggregation, presence of 4-OHTM
Description: (§1) To determine whether the induction of differentiation in the TRM-6 and βlox5 cell lines requires downregulation of c-Myc expression, the effect of inducing c-Myc activity on hormone expression in cells expressing the MycER fusion protein was tested. 4-OHTM or the same amount of ethanol carrier was added to TRM-6/PDX-1 and βlox5/PDX-1 cells at the initiation of the four day period of aggregation required for hormone induction. In addition, 100 nM of the GLP-1 agonist exendin-4 was added to βlox5/PDX-1, as activation of the GLP-1 receptor is necessary for β-cell differentiation in that cell line (Itkin-Ansari, et al., Molec. Endocrinol. 14:814-822(2000)).
(§2) In the absence of 4-OHTM, TRM-6 aggregates expressed high levels of somatostatin after four days of aggregation, while βlox5 aggregates expressed high levels of insulin. […] Insulin protein (273±70.5 pmoles/L) was detected by ELISA in supernatant from βlox5/PDX-1/MycER aggregates in the absence of 4-OHTM but was undetectable in the presence of 4-OHTM. Data were obtained from four independent experiments. To determine whether c-Myc activation produced ablation of hormone expression as opposed to a switch to a different endocrine lineage, the expression of the other major pancreatic hormones, somatostatin, glucagon and pancreatic polypeptide, was measured in 4-OHTM-treated βlox5/PDX-1/MycER cells and found to be absent.

[6] = test system: βlox5/PDX-1/MycER aggregates; assay: Hormone expression after c-Myc induction in βlox5/PDX-1/MycER aggregates (RT-PCR, insulin ELISA)
Description: as §1, §2

[7] = test system: βlox5/PDX-1 cells; assay: Expansion of βlox5/PDX-1 cells under continued administration; settings: continued administration of 4-OHTM; cells ordinarily almost completely growth arrested
Excerpt: The finding that c-Myc induces the translocation of PDX-1 to the cytoplasm provides important clues to the mechanism by which c-Myc may act on pancreatic endocrine cell proliferation and differentiation. In our system, not only does PDX-1 play a role in inducing hormone expression, but it also produces a marked growth arrest, particularly in the β-cell line βlox5. […] Thus, cell-cell contact and PDX-1 each play dual roles in inhibiting entry into the cell cycle as well as promoting differentiation.

[8] = test system: βlox5/PDX-1/MycER cells; assay: PDX-1 cellular localization and p38 activation state
Excerpt: PDX-1 plays a role in the establishment and maintenance of β-cell differentiation. In both the βlox5 and TRM-6 cell lines, it is required for the induction of hormone expression. Therefore, PDX-1 was a good candidate for being a downstream target for c-Myc in the inhibition of hormone expression. Since, in the cell lines that we are studying, PDX-1 is introduced exogenously using a retroviral vector and is transcribed from the retroviral LTR promoter, it was unlikely that c-Myc would be acting at the transcriptional level. Therefore, we investigated PDX-1 cellular localization in βlox5/PDX-1/MycER cells in the presence and absence of 4-OHTM. […] However, many cells exposed to 4-OHTM continued to express PDX-1 in the nucleus and PDX-1 binding to a target DNA sequence could still be detected by EMSA. This could be due to the length of time that the cells were exposed to 4-OHTM or to other pathways such as p38 (RK/SAPK2) that influences PDX-1 localization and function.
Because PDX-1 localization has been reported to be influenced by the p38 pathway, the activation state of p38 was studied using a monoclonal antibody specific for the phosphorylated/active form of the enzyme. In control and 4-OHTM-treated βlox5/PDX-1/MycER cells, active p38 was present in the cytoplasm.

[9] = test system: MycER fusion protein; assay: RT-PCR of c-Myc downstream targets cyclin E and cyclin A after MycER activation; settings: βlox5/PDX-1/MycER aggregates
Excerpt: To test the hypothesis that decreased c-Myc expression in cell aggregates plays a causal role in promoting differentiation by cell-cell contact, we took advantage of the inducible properties of a fusion protein between an estrogen receptor and c-Myc (Eilers, et al. Nature 340:66-68 (1989)). MycER was expressed in TRM-6 and βlox5 by retroviral infection followed by puromycin selection. Selected βlox5 and TRM-6 cells expressed MycER as shown by western blot analysis. To determine whether the fusion protein was active, the expression of cyclin E and cyclin A was determined since they are known downstream targets of c-Myc.

[10] = test system: βlox5/PDX-1/MycER aggregates; assay: Ki-67 immunostaining for cell proliferation; settings: 4-OHTM added to aggregates; 16% without 4-OHTM; n=300 cells
Excerpt: PDX-1 and cell-cell contact caused a decrease in cell proliferation in βlox5/PDX-1/MycER cells as shown by immunostaining for the proliferation-associated nuclear antigen Ki-67. In monolayer culture, 77% of βlox5 cells expressed Ki67, while only 16% of the cells in βlox5/PDX-1/MycER aggregates were Ki67 positive (n=300 cells in each case). Addition of 4-OHTM to the aggregates increased the percentage of Ki67 positive cells to 57%. In the absence of 4-OHTM, few cells in the aggregates were positive for Ki-67, while in the presence of 4-OHTM many cells throughout the aggregates were positive.

[11] = induced βlox5 cells (PDX-1, cell-cell contact, exendin-4)

Question: With exendin-4 as the compound, how does the insulin production ([1]; 10 nM exendin-4, suspension culture, three-dimensional aggregates) read?
Answer: clearly detectable

Question: And the insulin production ([1]; exendin-4 treatment alone, 10 nM, four days)?
Answer: incapable of inducing insulin production

Question: And the “effect on hormone expression in βlox5” value ([2]; exendin-4 by itself, 10 nM, four days)?
Answer: no effect

Question: And the “Islet amyloid polypeptide (IAPP) mRNA” value [2, 11]?
Answer: expressed

Question: And the “glucagon, somatostatin and pancreatic polypeptide (PP) expression” value [2, 11]?
Answer: not induced

Question: And the “insulin mRNA” value ([2]; βlox5 cells expressing PDX-1, suspension culture as three-dimensional aggregates, 10 nM exendin-4)?
Answer: a substantial amount of insulin mRNA was detectable

Question: And the BETA2 expression ([3]; PDX-1, cell-cell contact and exendin-4)?
Answer: induced only by the combination of all three inducing factors

Question: What about the CREB expression ([3]; exendin-4 alone, independently of cell-cell contact and PDX-1) of the same compound?
Answer: induced

Question: For `CC/C(=C(\c1ccc(O)cc1)c1ccc(OCCN(C)C)cc1)c1ccccc1` [4-OHTM], which “level of mRNA for Pax6 and induction of BETA2/NeuroD1 gene expression” value ([4]; RT-PCR) is on record?
Answer: did not result in a change

Question: And the CREB expression ([4]; western blot)?
Answer: not affected

Question: What about the “somatostatin mRNA” value [5] of the same compound?
Answer: neither somatostatin nor insulin mRNA was present

Question: What about the “expression of somatostatin, glucagon and pancreatic polypeptide” value ([6]; 4-OHTM-treated βlox5/PDX-1/MycER cells) of the same compound?
Answer: absent

Question: And the “insulin mRNA” value ([6]; four days of aggregation, 100 nM exendin-4, presence of 4-OHTM)?
Answer: neither somatostatin nor insulin mRNA was present

Question: And the “insulin protein in supernatant by ELISA” value ([6]; presence of 4-OHTM, 273±70.5 pmoles/L in its absence, four independent experiments)?
Answer: undetectable

Question: And the cell growth [7]?
Answer: rapid expansion

Question: What about the PDX-1 cellular localization ([8]; 4-OHTM-induced activation of c-Myc) of the same compound?
Answer: translocation of PDX-1 from the nucleus to the cytoplasm

Question: And the “p38 expression or activation” value ([8]; 4-OHTM-treated cells, antibody to phosphorylated/active p38)?
Answer: did not result in any changes

Question: What about the “cyclin A expression” value [9] of the same compound?
Answer: did not affect

Question: What about the “cyclin E mRNA expression” value [9] of the same compound?
Answer: increase

Question: What about the “percentage of Ki67 positive cells” value [10] of the same compound?
Answer: 57%

Question: Activin was tested. Which “effect on hormone expression in βlox5 cells” value ([2]; βlox5 cells expressing PDX-1, data not shown) did it give?
Answer: no effect
